# Laboratory results reported in publication PMC10974284, “Discovery of Novel 4-Hydroxyquinazoline Derivatives: In Silico, In Vivo and In Vitro Studies Using Primary PARPi-Resistant Cell Lines” (Molecules, 2024).
# Where two headings read alike, the source gives them in different places.
# Columns and labels:
# HCC1937 cell lines = test: MTT cytotoxicity assay, HCC1937; format: cell-based, human; conditions: for IC50 / inhibition at 50 µM: Homo sapiens; for IC50: 72 h (3-Days) drug exposure, read-out: IC50 HCC1937; for inhibition at 50 µM: read-out: Inhibition rate (%) HCC1937
# Procedure: (§1) After treatment with target compounds at the different concentrations, MTT was added and the cells were incubated for another 4 h. The IC50 values of the selected compounds were evaluated by the same method. The cells were treated with compounds at different concentrations. The OD values were detected using a microplate reader at 570 nm.
# HCT-15 cell lines = test: MTT cytotoxicity assay, HCT-15; format: cell-based, human; conditions: for IC50 / inhibition at 50 µM: Homo sapiens; for IC50: 72 h (3-Days) drug exposure, read-out: IC50 HCT-15; for inhibition at 50 µM: read-out: Inhibition rate (%) HCT-15
# Procedure: as §1
Structure (SMILES),"IC50 (HCC1937 cell lines; HCC1937, MTT) [µM]","IC50 (HCT-15 cell lines; HCT-15, MTT) [µM]",melting point [°C],other results
"O=C(Nc1ccccc1F)N1CCN(Cc2nc3ccccc3c(=O)[nH]2)CC1 [A1, N-(2-fluorophenyl)-4-((4-oxo-3,4-dihydroquinazolin-2-yl)methyl)piperazine-1-carboxamide]",16.6 ± 1.12,18.4 ± 0.91,192.5 to 194.2,
"O=C(Nc1cccc(F)c1)N1CCN(Cc2nc3ccccc3c(=O)[nH]2)CC1 [A2, N-(3-fluorophenyl)-4-((4-oxo-3,4-dihydroquinazolin-2-yl)methyl)piperazine-1-carboxamide]",> 50,34.9 ± 2.23,189.5 to 192.1,
"O=C(Nc1ccc(F)cc1)N1CCN(Cc2nc3ccccc3c(=O)[nH]2)CC1 [A3, N-(4-fluorophenyl)-4-((4-oxo-3,4-dihydroquinazolin-2-yl)methyl)piperazine-1-carboxamide]",> 50,> 50,196.5 to 197.8,
"O=C(Nc1ccccc1Cl)N1CCN(Cc2nc3ccccc3c(=O)[nH]2)CC1 [A4, N-(2-chlorophenyl)-4-((4-oxo-3,4-dihydroquinazolin-2-yl)methyl)piperazine-1-carboxamide]",14.7 ± 1.67,19.1 ± 1.12,197.9 to 199.6,
"O=C(Nc1cccc(Cl)c1)N1CCN(Cc2nc3ccccc3c(=O)[nH]2)CC1 [A5, N-(3-chlorophenyl)-4-((4-oxo-3,4-dihydroquinazolin-2-yl)methyl)piperazine-1-carboxamide]",25.9 ± 0.96,19.1 ± 0.79,193.3 to 195.2,
"O=C(Nc1ccc(Cl)cc1)N1CCN(Cc2nc3ccccc3c(=O)[nH]2)CC1 [A6, N-(4-chlorophenyl)-4-((4-oxo-3,4-dihydroquinazolin-2-yl)methyl)piperazine-1-carboxamide]",> 50,21.4 ± 0.86,189.8 to 191.4,
"O=C(Nc1ccccc1Br)N1CCN(Cc2nc3ccccc3c(=O)[nH]2)CC1 [A7, N-(2-bromophenyl)-4-((4-oxo-3,4-dihydroquinazolin-2-yl)methyl)piperazine-1-carboxamide]",40.3 ± 3.32,29.6 ± 1.37,195.1 to 196.7,
"O=C(Nc1cccc(Br)c1)N1CCN(Cc2nc3ccccc3c(=O)[nH]2)CC1 [A8, N-(3-bromophenyl)-4-((4-oxo-3,4-dihydroquinazolin-2-yl)methyl)piperazine-1-carboxamide]",47.4 ± 2.96,27.7 ± 2.56,194.2 to 196.3,
"O=C(Nc1ccc(Br)cc1)N1CCN(Cc2nc3ccccc3c(=O)[nH]2)CC1 [A9, N-(4-bromophenyl)-4-((4-oxo-3,4-dihydroquinazolin-2-yl)methyl)piperazine-1-carboxamide]",> 50,> 50,187.8 to 188.9,
"Cc1ccccc1NC(=O)N1CCN(Cc2nc3ccccc3c(=O)[nH]2)CC1 [A10, 4-((4-oxo-3,4-dihydroquinazolin-2-yl)methyl)-N-(o-tolyl)piperazine-1-carboxamide]",14.7 ± 1.03,15.9 ± 0.85,199.9 to 201.6,
"Cc1cccc(NC(=O)N2CCN(Cc3nc4ccccc4c(=O)[nH]3)CC2)c1 [A11, 4-((4-oxo-3,4-dihydroquinazolin-2-yl)methyl)-N-(m-tolyl)piperazine-1-carboxamide]",> 50,25.6 ± 1.17,197.8 to 200.2,
"Cc1ccc(NC(=O)N2CCN(Cc3nc4ccccc4c(=O)[nH]3)CC2)cc1 [A12, 4-((4-oxo-3,4-dihydroquinazolin-2-yl)methyl)-N-(p-tolyl)piperazine-1-carboxamide]",> 50,> 50,197.7 to 199.5,
"O=C(Nc1ccccc1C(F)(F)F)N1CCN(Cc2nc3ccccc3c(=O)[nH]2)CC1 [A13, 4-((4-oxo-3,4-dihydroquinazolin-2-yl)methyl)-N-(2-(trifluoromethyl)phenyl) piperazine-1-carboxamide]",> 50,20.2 ± 0.78,200.1 to 201.2,
"O=C(Nc1cccc(C(F)(F)F)c1)N1CCN(Cc2nc3ccccc3c(=O)[nH]2)CC1 [A14, 4-((4-oxo-3,4-dihydroquinazolin-2-yl)methyl)-N-(3-(trifluoromethyl)phenyl)piperazine-1-carboxamide]",17.7 ± 0.77,20 ± 1.15,197.8 to 200.3,
"O=C(Nc1ccc(C(F)(F)F)cc1)N1CCN(Cc2nc3ccccc3c(=O)[nH]2)CC1 [A15, 4-((4-oxo-3,4-dihydroquinazolin-2-yl)methyl)-N-(4-(trifluoromethyl)phenyl)piperazine-1-carboxamide]",> 50,15.6 ± 0.56,198.8 to 200.6,
"COc1ccccc1NC(=O)N1CCN(Cc2nc3ccccc3c(=O)[nH]2)CC1 [A16, N-(2-methoxyphenyl)-4-((4-oxo-3,4-dihydroquinazolin-2-yl)methyl)piperazine-1-carboxamide]",> 50,30.7 ± 2.13,188.5 to 190.7,
"COc1cccc(NC(=O)N2CCN(Cc3nc4ccccc4c(=O)[nH]3)CC2)c1 [A17, N-(3-methoxyphenyl)-4-((4-oxo-3,4-dihydroquinazolin-2-yl)methyl)piperazine-1-carboxamide]",> 50,> 50,186.3 to 188.5,

Structure (SMILES),"IC50 (HCC1937 cell lines; HCC1937, MTT) [µM]","IC50 (HCT-15 cell lines; HCT-15, MTT) [µM]",melting point [°C],other results
"COc1ccc(NC(=O)N2CCN(Cc3nc4ccccc4c(=O)[nH]3)CC2)cc1 [A18, N-(4-methoxyphenyl)-4-((4-oxo-3,4-dihydroquinazolin-2-yl)methyl)piperazine-1-carboxamide]",> 50,> 50,184.9 to 186.9,
"O=C(Nc1cccc(F)c1F)N1CCN(Cc2nc3ccccc3c(=O)[nH]2)CC1 [A19, N-(2,3-difluorophenyl)-4-((4-oxo-3,4-dihydroquinazolin-2-yl)methyl)piperazine-1-carboxamide]",> 50,19.1 ± 0.59,188.2 to 189.9,
"O=C(Nc1cc(F)ccc1F)N1CCN(Cc2nc3ccccc3c(=O)[nH]2)CC1 [A20, N-(2,5-difluorophenyl)-4-((4-oxo-3,4-dihydroquinazolin-2-yl)methyl)piperazine-1-carboxamide]",41.7 ± 1.89,33.1 ± 2.16,202.1 to 204.2,
"Cc1cccc(NC(=O)N2CCN(Cc3nc4ccccc4c(=O)[nH]3)CC2)c1F [A21, N-(2-fluoro-3-methylphenyl)-4-((4-oxo-3,4-dihydroquinazolin-2-yl)methyl)piperazine-1-carboxamide]",> 50,28.3 ± 1.55,200.5 to 202.1,
"Cc1ccc(NC(=O)N2CCN(Cc3nc4ccccc4c(=O)[nH]3)CC2)c(F)c1 [A22, N-(2-fluoro-4-methylphenyl)-4-((4-oxo-3,4-dihydroquinazolin-2-yl)methyl)piperazine-1-carboxamide]",> 50,21.7 ± 1.16,198.4 to 200.7,
"Cc1ccc(F)c(NC(=O)N2CCN(Cc3nc4ccccc4c(=O)[nH]3)CC2)c1 [A23, N-(2-fluoro-5-methylphenyl)-4-((4-oxo-3,4-dihydroquinazolin-2-yl)methyl)piperazine-1-carboxamide]",44.2 ± 3.47,26 ± 1.67,199.5 to 201.1,
"O=C(Nc1ccc(C(F)(F)F)cc1F)N1CCN(Cc2nc3ccccc3c(=O)[nH]2)CC1 [A24, N-(2-fluoro-4-(trifluoromethyl)phenyl)-4-((4-oxo-3,4-dihydroquinazolin-2-yl)methyl)piperazine-1-carboxamide]",44.1 ± 2.19,22.8 ± 1.82,202.3 to 203.9,
"O=C(Nc1c(F)cccc1Cl)N1CCN(Cc2nc3ccccc3c(=O)[nH]2)CC1 [A25, N-(2-chloro-6-fluorophenyl)-4-((4-oxo-3,4-dihydroquinazolin-2-yl)methyl)piperazine-1-carboxamide]",> 50,41.2 ± 1.44,198.4 to 199.8,
"O=C(Nc1cc(C(F)(F)F)ccc1Cl)N1CCN(Cc2nc3ccccc3c(=O)[nH]2)CC1 [A26, N-(2-chloro-5-(trifluoromethyl)phenyl)-4-((4-oxo-3,4-dihydroquinazolin-2-yl)methyl)piperazine-1-carboxamide]",> 50,37.3 ± 2.76,191.2 to 193.9,
COC(=O)c1ccccc1N [compound 1],,,,"inhibition at 50 µM (HCC1937 cell lines; HCC1937, 72 h): 12.7%; inhibition at 50 µM (HCT-15 cell lines; HCT-15, 72 h): 13.7%"
O=c1[nH]c(CCl)nc2ccccc12 [compound 2],,,,"inhibition at 50 µM (HCC1937 cell lines; HCC1937, 50 μM, 72 h, MTT): 10.3%; inhibition at 50 µM (HCT-15 cell lines; HCT-15, 50 μM, 72 h, MTT): 31.9%"
CC(C)(C)OC(=O)N1CCN(Cc2nc3ccccc3c(=O)[nH]2)CC1 [compound 3],,,,"inhibition at 50 µM (HCC1937 cell lines; HCC1937, 50 μM, 72 h, MTT): 19.5%; inhibition at 50 µM (HCT-15 cell lines; HCT-15, 50 μM, 72 h, MTT): 52.3%"
O=c1[nH]c(CN2CCNCC2)nc2ccccc12 [compound 4],,,,"inhibition at 50 µM (HCC1937 cell lines; HCC1937, 50 μM, 72 h, MTT): 16.5%; inhibition at 50 µM (HCT-15 cell lines; HCT-15, 50 μM, 72 h, MTT): 48.9%"
Oc1ccc(N2CCNCC2)cc1 [compound 23],,,,"Inhibition rate (%) HCC1937 (HCC1937 cell lines; 50 μM, 72 h, MTT): 9.2%; Inhibition rate (%) HCT-15 (HCT-15 cell lines; 50 μM, 72 h, MTT): 41.9%"
O=c1[nH]c(=O)n([C@H]2C[C@H](O)[C@@H](CO)O2)cc1/C=C/Br [compound 33],,,,"Inhibition rate (%) HCC1937 (HCC1937 cell lines; 50 μM, 72 h, MTT): 17.3%; Inhibition rate (%) HCT-15 (HCT-15 cell lines; 50 μM, 72 h, MTT): 28.5%"
C[C@H](CCC(=O)O)[C@H]1CC[C@H]2[C@@H]3C(=O)C[C@@H]4CC(=O)CC[C@]4(C)[C@H]3CC(=O)[C@]12C [compound 35],,,,"Inhibition rate (%) HCC1937 (HCC1937 cell lines; 50 μM, 72 h, MTT): 21.4%; Inhibition rate (%) HCT-15 (HCT-15 cell lines; 50 μM, 72 h, MTT): 12.3%"
Cc1ccc(-c2cc(C(F)(F)F)nn2-c2ccc(S(N)(=O)=O)cc2)cc1 [compound 54],,,,"Inhibition rate (%) HCC1937 (HCC1937 cell lines; 50 μM, 72 h, MTT): 33.1%; Inhibition rate (%) HCT-15 (HCT-15 cell lines; 50 μM, 72 h, MTT): 33.5%"
